Assay results from patent EP0560235B1, “Condensed heterocyclic ketone derivatives, their production and use” (priority 1992, dated 1993).

Assays:
[1] = target: T1, cholinesterase (Rattus norvegicus, UniProt P37136); assay: Cholinesterase inhibitory activity assayed with (acetyl-[3H])-acetylcholine, S1 fraction of cerebral cortex homogenate; type: biochemical; settings: S1 fraction of male Wistar rat cerebral cortex homogenate; (acetyl-[3H])-acetylcholine substrate; 30 minutes incubation; read-out: Acetylcholinesterase inhibitory activity I C50
T1 construct: using the S1 fraction of a homogenate of male Wistar rat cerebral cortex as the cholinesterase source; from tissue; host or cells: male Wistar rat cerebral cortex, S1 fraction of homogenate
Method: The cholinesterase inhibitory activity of the compound of this invention was assayed with (acetyl-[^3H])-acetylcholine. More specifically, using the S1 fraction of a homogenate of male Wistar rat cerebral cortex as the cholinesterase source, (acetyl[^3H])-acetylcholine as the substrate and the compound of this invention as the test sample were added. The mixture was incubated for 30 minutes, then the reaction was terminated, to which was added a toluene-based scintillant, then the mixture was shaken. The reaction product [^3H]-acetic acid was transferred to the toluene layer, which was subjected to determination of cholinesterase activity by counting with a liquid scintillation counter.

[2] = target: T2, serotonin (5-HT) uptake (Rattus norvegicus, UniProt P31652); assay: Monoamine uptake into crude synaptosomal preparations (P2) of cerebral cortex and hippocampus, [3H]-5-HT; type: biochemical, Rats
T2 construct: Crude synaptosomal preparations (P2) were isolated after differential centrifugation; from tissue; host or cells: rat cerebral cortex and hippocampus, crude synaptosomal preparation (P2)
Method: Effects of the compound of this invention on monoamine uptake were investigated using [^3H]-norepinephirine(NE) and [^3H]-serotonin (5-HT). Rats were sacrificed by decapitation. The cerebral cortex and hippocampus were removed and homogenized in 10-15 volumes (W/V) of an ice-cold medium containing 0.32 M sucrose. Crude synaptosomal preparations (P2) were isolated after differential centrifugation at 1000 x g for 10 min and 20,000 x g for 30 min at 4°C. […] Synaptosomal membrane suspension (900 µl) was preincubated with the test compound dissolved in DMSO solution at 37°C for 5 min. […] Five minutes later, the reaction was stopped by the addition of 4 ml of ice-cold KRB and the reaction mixture was filtered through Whatman GF/B. Filters were washed twice with 4 ml of KRB and the radioactivity bound was counted with liquid scintillant. […] All compounds were tested at 10^-8, 10^-7, 10^-6 and 10^-5M.

T1 sequence (P37136 32-614): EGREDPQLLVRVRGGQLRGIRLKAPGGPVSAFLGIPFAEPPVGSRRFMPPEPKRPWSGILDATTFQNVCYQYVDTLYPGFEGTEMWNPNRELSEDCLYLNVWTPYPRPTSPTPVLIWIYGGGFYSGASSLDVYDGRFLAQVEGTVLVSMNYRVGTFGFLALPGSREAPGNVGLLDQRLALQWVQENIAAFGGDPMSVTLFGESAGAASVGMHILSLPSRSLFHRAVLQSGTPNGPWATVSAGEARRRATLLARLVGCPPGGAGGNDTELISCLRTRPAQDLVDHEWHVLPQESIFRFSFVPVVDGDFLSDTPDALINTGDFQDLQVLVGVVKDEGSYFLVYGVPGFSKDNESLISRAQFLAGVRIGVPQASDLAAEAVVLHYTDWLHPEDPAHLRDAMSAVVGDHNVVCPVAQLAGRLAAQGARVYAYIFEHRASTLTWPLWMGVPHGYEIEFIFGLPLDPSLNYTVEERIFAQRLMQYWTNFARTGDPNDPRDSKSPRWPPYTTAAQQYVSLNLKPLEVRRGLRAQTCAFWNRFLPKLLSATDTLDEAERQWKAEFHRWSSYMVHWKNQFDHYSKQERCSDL
T2 sequence (P31652 whole entry): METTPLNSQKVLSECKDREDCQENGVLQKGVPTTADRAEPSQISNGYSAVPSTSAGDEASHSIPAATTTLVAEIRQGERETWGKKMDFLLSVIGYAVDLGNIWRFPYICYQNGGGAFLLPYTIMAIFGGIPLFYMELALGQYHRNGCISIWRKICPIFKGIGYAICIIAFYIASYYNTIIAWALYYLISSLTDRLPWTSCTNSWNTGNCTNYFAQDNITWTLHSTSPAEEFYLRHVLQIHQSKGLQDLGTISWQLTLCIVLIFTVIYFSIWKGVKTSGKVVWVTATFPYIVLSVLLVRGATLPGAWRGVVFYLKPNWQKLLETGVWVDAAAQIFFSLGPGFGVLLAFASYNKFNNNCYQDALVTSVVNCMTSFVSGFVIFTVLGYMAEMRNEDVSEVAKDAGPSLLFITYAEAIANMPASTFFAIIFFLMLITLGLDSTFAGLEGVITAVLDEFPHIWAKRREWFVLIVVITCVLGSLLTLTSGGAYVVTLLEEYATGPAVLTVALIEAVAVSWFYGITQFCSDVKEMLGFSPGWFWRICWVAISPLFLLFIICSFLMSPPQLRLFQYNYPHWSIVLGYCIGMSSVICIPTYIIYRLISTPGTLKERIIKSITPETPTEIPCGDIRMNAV

Row | SMILES | IC50 [1] [nM] | IC50 [2] [nM]
1 | CCN1CCc2ccc(C(=O)CCN3CCN(Cc4ccccc4)CC3)cc2CC1 [14-5] | 18.8 | –
2 | Cc1ccc(CN2CCc3ccc(C(=O)CCN4CCN(Cc5ccccc5)CC4)cc3CC2)cc1 [14-23] | 66.1 | 58.3
3 | CC(=O)N1CCc2cc(C(=O)CCN3CCN(Cc4ccccc4)CC3)ccc21 [compound 16] | 25.1 | –
4 | O=C(CCN1CCN(Cc2ccccc2)CC1)c1ccc2c(c1)CNCCC2 [13-3] | 78.9 | –
5 | Cc1cccc(CN2CCc3ccc(C(=O)CCN4CCN(Cc5ccccc5)CC4)cc3CC2)c1 [14-25] | 69.6 | –
6 | COc1ccc(CCN2CCc3ccc(C(=O)CCN4CCN(Cc5ccccc5)CC4)cc3CC2)cc1OC [14-36] | 16.8 | 13.3
7 | O=C(CCN1CCN(Cc2ccccc2)CC1)c1ccc2c(c1)CCN(Cc1cccc(F)c1)CC2 [14-20] | 47.8 | –
8 | COc1ccc(CN2CCc3ccc(C(=O)CCN4CCN(Cc5ccccc5)CC4)cc3CC2)cc1 [14-29] | 25.7 | 54.4
9 | CC(C)CN1CCc2ccc(C(=O)CCN3CCN(Cc4ccccc4)CC3)cc2CC1 [14-33] | 34.1 | 55.9
10 | O=C(CCN1CCN(Cc2ccccc2)CC1)c1ccc2c(c1)CCN(CCc1ccccc1)CC2 [14-31] | 33 | 30.5
11 | O=C(CCN1CCN(Cc2ccccc2)CC1)c1ccc2c(c1)CCN(Cc1ccc(Cl)cc1)CC2 [14-10] | 167 | –
12 | COc1cccc(CN2CCc3ccc(C(=O)CCN4CCN(Cc5ccccc5)CC4)cc3CC2)c1 [14-27] | 133 | –
13 | O=C(CCN1CCN(Cc2ccccc2)CC1)c1ccc2c(c1)CCN(C(=O)c1ccccc1)CC2 [17-3] | 82.5 | –
14 | O=C(CCN1CCN(Cc2ccccc2)CC1)c1ccc2c(c1)CCN2Cc1ccccc1 [14-1] | – | 416
15 | O=C(CCN1CCN(Cc2cccc(Cl)c2)CC1)c1ccc2c(c1)CCN(Cc1ccccc1)CC2 [14-7] | – | 42.1
16 | CN1CCc2ccc(C(=O)CCN3CCN(Cc4ccccc4)CC3)cc2CC1 [compound 18] | 33.8 | –
17 | O=C(CCN1CCN(Cc2ccccc2)CC1)c1ccc2c(c1)CN(Cc1ccccc1)CCC2 [14-2] | 538 | –
18 | O=C(CCN1CCN(Cc2ccccc2Cl)CC1)c1ccc2c(c1)CCN(Cc1ccccc1)CC2 [14-6] | 113 | 34.5
19 | N#Cc1ccc(CN2CCc3ccc(C(=O)CCN4CCN(Cc5ccccc5)CC4)cc3CC2)cc1 [14-19] | 33.9 | –
20 | COc1ccc(CN2CCc3ccc(C(=O)CCN4CCN(Cc5ccccc5)CC4)cc3CC2)cc1OC [14-22] | 21.5 | –
21 | O=C(CCN1CCN(Cc2ccccc2)CC1)c1ccc2c(c1)CCN(Cc1cccc(Cl)c1)CC2 [14-4] | 147 | –
22 | COc1ccccc1CN1CCc2ccc(C(=O)CCN3CCN(Cc4ccccc4)CC3)cc2CC1 [14-21] | 22.6 | –
23 | Cc1ccccc1CN1CCc2ccc(C(=O)CCN3CCN(Cc4ccccc4)CC3)cc2CC1 [14-14] | 63.6 | –
